Source: paper PMC12714101, “CD160-Derived Peptide as a Bidirectional Inhibitor Toward Immune Checkpoints BTLA/HVEM and HVEM/LIGHT” (Journal of Medicinal Chemistry, 2025)
Where a SMILES comes first, the peptide text is derived from it.

Target: T1, BTLA/HVEM complex (Homo sapiens, UniProt Q92956)
T1 construct: purchased ACROBiosystems HVM-H52E9 (HVEM-His); BTA-H5255 (BTLA-Fc)
T1 sequence (Q92956 39-202 limits assumed): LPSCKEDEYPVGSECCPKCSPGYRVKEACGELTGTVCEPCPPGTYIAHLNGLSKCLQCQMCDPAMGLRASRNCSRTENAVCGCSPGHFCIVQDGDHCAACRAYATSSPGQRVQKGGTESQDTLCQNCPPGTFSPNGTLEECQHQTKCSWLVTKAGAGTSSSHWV
Assay: ELISA inhibition of BTLA/HVEM complex formation
Assay type: biochemical
Details: immobilized HVEM-His, BTLA-Fc 5 μg/mL, PBS-T, 37 °C, mean of three independent experiments; for inhibition at 16.67 µM: peptide 16.67 μM; for inhibition at 50 µM: peptide 50 μM; for inhibition at 150 µM: peptide 150 μM
Protocol: In the subsequent stage of the study, the potential of the obtained compounds to inhibit the interaction between BTLA and HVEM proteins was evaluated using ELISA, following the methodology described in our previous studies. , HVEM was immobilized on the plate and incubated with peptides at three different concentrations, followed by the addition of Fc-tagged BTLA. Detection was carried out using horseradish peroxidase (HRP) conjugated with anti-human IgG and 3,3′,5,5′-tetramethylbenzidine (TMB) as a substrate. Signal intensity was directly proportional to the amount of BTLA bound to HVEM and inversely proportional to the inhibitory activity of the tested peptides. As a control, BTLA and HVEM were incubated in the absence of peptides.
Recombinant human HVEM protein with a His tag was purchased from ACROBiosystems, Newark, DE, USA (no. HVM-H52E9). Recombinant human protein BTLA-Fc and LIGHT-Fc were also purchased from ACROBiosystems, Newark, DE, USA (no. BTA-H5255 and no. LIT-H5269).
ELISA was performed using transparent 96-well NUNC Maxisorp plates (Thermo Fisher Scientific, Waltham, MA, USA). In the first step, HVEM-His, dissolved in PBS at a concentration of 5 μg/mL (100 μL/well), was immobilized on the plate by overnight incubation at 4 °C. Wells were then blocked with 5% bovine serum albumin (BSA) in PBS containing 0.05% Tween 20 (PBS-T) (200 μL/well). Next, peptides dissolved in PBS-T at concentrations of 150, 50, and 16.67 μM were added to the wells (100 μL/well). Following this, BTLA-Fc in PBS-T at a concentration of 5 μg/mL (100 μL/well) was applied. In the next step, goat anti-human IgG antibody conjugated with the HRP (Bio-Rad Laboratories, Hercules, CA, USA) in PBS-T at a ratio of 1:30,000 (v/v) was added (100 μL/well). Colorimetric detection was performed by adding 100 μL of TMB substrate (Thermo Fisher Scientific, Waltham, MA, USA) to each well and incubating the plate in the dark. At each stage, plates were incubated at 37 °C with continuous shaking for 1 h (except TMB, which was incubated for 15 min). After each incubation, wells were washed five times with PBS-T. Absorbance was measured using an Infinite M200 Pro Reader (Tecan Group Ltd., Männedorf, Switzerland) at wavelengths of 650 nm (measurement wavelength) and 492 nm (reference wavelength). Inhibition assays for the HVEM/LIGHT complex were conducted using the same approach, except that LIGHT was used instead of BTLA. The BTLA/HVEM and HVEM/LIGHT complexes without peptides served as controls. Inhibition percentages were calculated based on the assumption that PBS-T has no effect on the formation of BTLA/HVEM or HVEM/LIGHT complexes. Each ELISA was conducted in at least three independent replicates. The data were analyzed using GraphPad Prism 8 software (San Diego, CA, USA).

SMILES | inhibition at 16.67 µM | inhibition at 50 µM | inhibition at 150 µM
CC[C@H](NC(=O)[C@H](CC)NC(=O)[C@H](CCC(N)=O)NC(=O)[C@H](Cc1ccc(O)cc1)NC(C)=O)C(=O)N[C@@H](C)C(=O)N[C@@H](CCCNC(=N)N)C(=O)N[C@@H](CO)C(=O)N[C@@H](CCC(N)=O)C(=O)N[C@@H](CCCCN)C(=O)N[C@@H](CO)C(=O)NCC(=O)N[C@H](C(=O)N[C@@H](CCCNC(=N)N)C(=O)N[C@@H](CC(C)C)C(=O)N[C@@H](CCC(N)=O)C(=O)NCC(=O)N[C@@H](Cc1c[nH]cn1)C(=O)N[C@@H](Cc1ccccc1)C(=O)N[C@@H](Cc1ccccc1)C(N)=O)[C@@H](C)CC [A1, CD160(110–128)^(C112X,C113X)] (HELM PEPTIDE1{[ac].Y.Q.[Abu].[Abu].A.R.S.Q.K.S.G.I.R.L.Q.G.H.F.F.[am]}$$$$V2.0) | 4.31% | 6.28% | 7.44%
CC[C@H](NC(=O)[C@H](CCC(N)=O)NC(=O)[C@H](Cc1ccc(O)cc1)NC(C)=O)C(=O)N[C@H]1CSSC[C@@H](C(=O)NCC(=O)N[C@@H](Cc2c[nH]cn2)C(=O)N[C@@H](Cc2ccccc2)C(=O)N[C@@H](Cc2ccccc2)C(N)=O)NC(=O)[C@H](CC(C)C)NC(=O)[C@H](CCCNC(=N)N)NC(=O)[C@H]([C@@H](C)CC)NC(=O)CNC(=O)[C@H](CO)NC(=O)[C@H](CCCCN)NC(=O)[C@H](CCC(N)=O)NC(=O)[C@H](CO)NC(=O)[C@H](CCCNC(=N)N)NC(=O)[C@H](C)NC1=O [A3, CD160(110–128)^(C112X,Q124C)] (HELM PEPTIDE1{[ac].Y.Q.[Abu].C.A.R.S.Q.K.S.G.I.R.L.C.G.H.F.F.[am]}$PEPTIDE1,PEPTIDE1,5:R3-16:R3$$$V2.0) | -0.96% | -0.72% | 3.85%
CC[C@@H]1NC(=O)[C@H](CC(C)C)NC(=O)[C@@H](NC(=O)[C@@H](NC(=O)[C@@H](NC(=O)[C@H](Cc2ccccc2)NC(C)=O)C(C)C)C(C)C)CSSC[C@@H](C(=O)N[C@@H](CC(C)C)C(=O)N[C@@H](CCCNC(=N)N)C(=O)N[C@@H](CC(C)C)C(N)=O)NC(=O)[C@H](CCCCN)NC(=O)[C@H](CC(C)C)NC(=O)[C@H](CO)NC(=O)[C@H]([C@@H](C)O)NC(=O)[C@H](CCC(=O)O)NC(=O)[C@@H]2CCCN2C(=O)[C@H](CO)NC(=O)[C@H](CC)NC(=O)[C@H](CC(=O)O)NC(=O)CNC(=O)[C@H](CO)NC(=O)[C@H](CCCNC(=N)N)NC(=O)[C@H](CC(=O)O)NC(=O)[C@H](CCCCN)NC1=O [B4, CD160(56–79)^(F59C,C61X,C68X,Q76C)] (HELM PEPTIDE1{[ac].F.V.V.C.L.[Abu].K.D.R.S.G.D.[Abu].S.P.E.T.S.L.K.C.L.R.L.[am]}$PEPTIDE1,PEPTIDE1,5:R3-22:R3$$$V2.0) | -4.42% | 0.29% | 9.93%
CC[C@H](NC(=O)[C@H](CCC(N)=O)NC(=O)[C@H](Cc1ccc(O)cc1)NC(C)=O)C(=O)N[C@@H](CC)C(=O)N[C@H]1CSSC[C@@H](C(=O)N[C@@H](CCC(N)=O)C(=O)NCC(=O)N[C@@H](Cc2c[nH]cn2)C(=O)N[C@@H](Cc2ccccc2)C(=O)N[C@@H](Cc2ccccc2)C(N)=O)NC(=O)[C@H](CCCNC(=N)N)NC(=O)[C@H]([C@@H](C)CC)NC(=O)CNC(=O)[C@H](CO)NC(=O)[C@H](CCCCN)NC(=O)[C@H](CCC(N)=O)NC(=O)[C@H](CO)NC(=O)[C@H](CCCNC(=N)N)NC1=O [A4, CD160(110–128)^(C112X,C113X,A114C,L123C)] (HELM PEPTIDE1{[ac].Y.Q.[Abu].[Abu].C.R.S.Q.K.S.G.I.R.C.Q.G.H.F.F.[am]}$PEPTIDE1,PEPTIDE1,6:R3-15:R3$$$V2.0) | -2.23% | -0.34% | -1.77%
CC[C@@H]1NC(=O)[C@@H](NC(=O)[C@H](Cc2ccccc2)NC(C)=O)CSSC[C@@H](C(=O)N[C@@H](CCCCN)C(N)=O)NC(=O)[C@H](CO)NC(=O)[C@H]([C@@H](C)O)NC(=O)[C@H](CCC(=O)O)NC(=O)[C@@H]2CCCN2C(=O)[C@H](CO)NC(=O)[C@H](CC)NC(=O)[C@H](CC(=O)O)NC(=O)CNC(=O)[C@H](CO)NC(=O)[C@H](CCCNC(=N)N)NC(=O)[C@H](CC(=O)O)NC(=O)[C@H](CCCCN)NC1=O [C2, CD160(59–75)^(L60C,C61X,L74C)] (HELM PEPTIDE1{[ac].F.C.[Abu].K.D.R.S.G.D.[Abu].S.P.E.T.S.C.K.[am]}$PEPTIDE1,PEPTIDE1,3:R3-17:R3$$$V2.0) | -0.94% | 1% | 0.77%
CC[C@@H]1NC(=O)[C@@H](NC(=O)[C@H](Cc2ccccc2)NC(=O)[C@@H](NC(=O)[C@@H](NC(=O)[C@H](Cc2ccccc2)NC(C)=O)C(C)C)C(C)C)CSSC[C@@H](C(=O)N[C@@H](CCCCN)C(=O)N[C@@H](CCC(N)=O)C(=O)N[C@@H](CC(C)C)C(=O)N[C@@H](CCCNC(=N)N)C(=O)N[C@@H](CC(C)C)C(N)=O)NC(=O)[C@H](CO)NC(=O)[C@H]([C@@H](C)O)NC(=O)[C@H](CCC(=O)O)NC(=O)[C@@H]2CCCN2C(=O)[C@H](CO)NC(=O)[C@H](CC)NC(=O)[C@H](CC(=O)O)NC(=O)CNC(=O)[C@H](CO)NC(=O)[C@H](CCCNC(=N)N)NC(=O)[C@H](CC(=O)O)NC(=O)[C@H](CCCCN)NC1=O [B3, CD160(56–79) ^(L60C,C61X,C68X,L74C)] (HELM PEPTIDE1{[ac].F.V.V.F.C.[Abu].K.D.R.S.G.D.[Abu].S.P.E.T.S.C.K.Q.L.R.L.[am]}$PEPTIDE1,PEPTIDE1,6:R3-20:R3$$$V2.0) | -4.44% | -5.5% | -4.74%
CC[C@H](NC(=O)[C@H](CC(C)C)NC(=O)[C@H](Cc1ccccc1)NC(C)=O)C(=O)N[C@@H](CCCCN)C(=O)N[C@@H](CC(=O)O)C(=O)N[C@@H](CCCNC(=N)N)C(=O)N[C@@H](CO)C(=O)NCC(=O)N[C@@H](CC(=O)O)C(=O)N[C@@H](CC)C(=O)N[C@@H](CO)C(=O)N1CCC[C@H]1C(=O)N[C@@H](CCC(=O)O)C(=O)N[C@H](C(=O)N[C@@H](CO)C(=O)N[C@@H](CC(C)C)C(=O)N[C@@H](CCCCN)C(N)=O)[C@@H](C)O [C1, CD160(59–75)^(C61X,C68X)] (HELM PEPTIDE1{[ac].F.L.[Abu].K.D.R.S.G.D.[Abu].S.P.E.T.S.L.K.[am]}$$$$V2.0) | 4.03% | 2.63% | 1.99%
CC[C@@H]1NC(=O)[C@H](CC)NC(=O)[C@@H](NC(=O)[C@H](Cc2ccc(O)cc2)NC(C)=O)CSSC[C@@H](C(=O)N[C@@H](Cc2ccccc2)C(N)=O)NC(=O)[C@H](Cc2c[nH]cn2)NC(=O)CNC(=O)[C@H](CCC(N)=O)NC(=O)[C@H](CC(C)C)NC(=O)[C@H](CCCNC(=N)N)NC(=O)[C@H]([C@@H](C)CC)NC(=O)CNC(=O)[C@H](CO)NC(=O)[C@H](CCCCN)NC(=O)[C@H](CCC(N)=O)NC(=O)[C@H](CO)NC(=O)[C@H](CCCNC(=N)N)NC(=O)[C@H](C)NC1=O [A2, CD160(110–128)^(Q111C,C112X,C113X,F127C)] (HELM PEPTIDE1{[ac].Y.C.[Abu].[Abu].A.R.S.Q.K.S.G.I.R.L.Q.G.H.C.F.[am]}$PEPTIDE1,PEPTIDE1,3:R3-19:R3$$$V2.0) | 1.45% | 3% | 2.26%
